Assay [1] deals with Proto-oncogene tyrosine-protein kinase ROS (Homo sapiens) (UniProt P08922). Description: Selectivity interaction (Kinase panel (Z-LYTE Assay)) EUB0001632a ROS1. Conditions: at 10 µM.
The target of assay [2] is Serine/threonine-protein kinase 16 (Homo sapiens, UniProt O75716). The assay can be described thus: Selectivity interaction (ActivX KiNativ screen (ex vivo kinase selectivity in human PBMCs)) EUB0001619a STK16. To be noted: PBMC, at 1 µM. The format is cell-based.
Assay [3] deals with T1, Serine/threonine-protein kinase Nek1 (Homo sapiens) (UniProt Q96PY6).
T1 sequence (whole entry): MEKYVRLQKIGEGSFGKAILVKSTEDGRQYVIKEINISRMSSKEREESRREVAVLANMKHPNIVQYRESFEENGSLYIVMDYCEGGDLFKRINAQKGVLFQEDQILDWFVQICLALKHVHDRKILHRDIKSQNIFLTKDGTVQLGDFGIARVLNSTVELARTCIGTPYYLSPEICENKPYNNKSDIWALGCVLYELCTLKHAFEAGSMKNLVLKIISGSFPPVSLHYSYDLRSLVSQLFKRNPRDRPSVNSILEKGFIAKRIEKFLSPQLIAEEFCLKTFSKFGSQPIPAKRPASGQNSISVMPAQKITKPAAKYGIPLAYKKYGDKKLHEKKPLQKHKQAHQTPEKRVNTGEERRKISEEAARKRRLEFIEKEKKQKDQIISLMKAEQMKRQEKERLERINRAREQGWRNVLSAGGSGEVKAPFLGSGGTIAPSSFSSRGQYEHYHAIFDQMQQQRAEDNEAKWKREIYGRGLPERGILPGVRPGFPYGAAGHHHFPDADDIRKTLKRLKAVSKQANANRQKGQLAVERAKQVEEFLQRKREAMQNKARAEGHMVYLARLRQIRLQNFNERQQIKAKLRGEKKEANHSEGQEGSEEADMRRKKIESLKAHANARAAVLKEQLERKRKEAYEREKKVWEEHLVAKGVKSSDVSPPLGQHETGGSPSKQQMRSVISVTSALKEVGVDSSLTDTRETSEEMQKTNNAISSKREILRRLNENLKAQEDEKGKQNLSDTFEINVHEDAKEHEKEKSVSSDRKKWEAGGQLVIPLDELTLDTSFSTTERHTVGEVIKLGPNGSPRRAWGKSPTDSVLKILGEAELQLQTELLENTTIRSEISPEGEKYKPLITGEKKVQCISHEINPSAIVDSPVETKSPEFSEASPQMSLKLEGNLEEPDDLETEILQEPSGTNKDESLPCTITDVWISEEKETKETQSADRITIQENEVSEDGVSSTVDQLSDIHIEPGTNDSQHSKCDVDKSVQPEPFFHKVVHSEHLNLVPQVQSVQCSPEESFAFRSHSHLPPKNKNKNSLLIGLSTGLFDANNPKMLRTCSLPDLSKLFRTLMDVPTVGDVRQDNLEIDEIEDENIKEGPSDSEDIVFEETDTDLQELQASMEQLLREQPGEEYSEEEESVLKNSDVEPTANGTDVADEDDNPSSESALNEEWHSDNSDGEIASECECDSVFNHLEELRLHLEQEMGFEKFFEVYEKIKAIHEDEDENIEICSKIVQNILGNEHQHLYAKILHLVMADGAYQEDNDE
To be noted: at 10 µM.

Assay [4] addresses Histone-lysine N-methyltransferase 2C (Homo sapiens) (UniProt Q8NEZ4). To be noted: at 10 µM.
Assay [5] concerns the target Cyclin-dependent kinase 13 (Homo sapiens, UniProt Q14004). The assay can be described thus: Selectivity interaction (KinomeScan (DiscoverX)) EUB0000045b CDK13.
In assay [6] the target is T2, Cyclin-dependent kinase 11A (Homo sapiens) (UniProt Q9UQ88).
T2 sequence (whole entry): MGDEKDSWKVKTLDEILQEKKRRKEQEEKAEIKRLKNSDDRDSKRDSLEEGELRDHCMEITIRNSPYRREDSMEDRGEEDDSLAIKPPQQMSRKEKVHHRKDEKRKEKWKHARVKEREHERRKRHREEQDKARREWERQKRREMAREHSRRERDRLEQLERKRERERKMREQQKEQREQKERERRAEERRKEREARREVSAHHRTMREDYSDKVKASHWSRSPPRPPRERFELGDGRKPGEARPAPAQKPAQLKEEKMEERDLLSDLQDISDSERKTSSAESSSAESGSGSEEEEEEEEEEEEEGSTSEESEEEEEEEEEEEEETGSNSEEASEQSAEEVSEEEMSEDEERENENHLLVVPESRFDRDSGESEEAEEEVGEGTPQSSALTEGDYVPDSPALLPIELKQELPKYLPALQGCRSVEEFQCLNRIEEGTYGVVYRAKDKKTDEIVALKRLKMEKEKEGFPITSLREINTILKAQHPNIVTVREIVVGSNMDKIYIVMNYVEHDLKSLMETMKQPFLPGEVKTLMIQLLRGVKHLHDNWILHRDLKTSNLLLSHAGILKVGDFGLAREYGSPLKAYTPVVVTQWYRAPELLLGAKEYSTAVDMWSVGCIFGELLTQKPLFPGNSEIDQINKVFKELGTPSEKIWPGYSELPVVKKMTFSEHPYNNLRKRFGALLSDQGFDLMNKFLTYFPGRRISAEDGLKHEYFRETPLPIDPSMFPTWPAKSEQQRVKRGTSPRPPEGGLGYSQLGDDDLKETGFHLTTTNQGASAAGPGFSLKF
Description: Selectivity interaction (KinomeScan (DiscoverX)) EUB0000618a CDK11A. To be noted: at 10 µM.

Assay [7] concerns the target Protein kinase C delta type (Homo sapiens) (UniProt Q05655). The assay can be described thus: Selectivity interaction (KinomeScan (DiscoverX)) EUB0000618a PRKCD. To be noted: at 10 µM.
For assay [8], the target named is T3, Rhodopsin kinase GRK7 (Homo sapiens) (UniProt Q8WTQ7).
T3 sequence (whole entry): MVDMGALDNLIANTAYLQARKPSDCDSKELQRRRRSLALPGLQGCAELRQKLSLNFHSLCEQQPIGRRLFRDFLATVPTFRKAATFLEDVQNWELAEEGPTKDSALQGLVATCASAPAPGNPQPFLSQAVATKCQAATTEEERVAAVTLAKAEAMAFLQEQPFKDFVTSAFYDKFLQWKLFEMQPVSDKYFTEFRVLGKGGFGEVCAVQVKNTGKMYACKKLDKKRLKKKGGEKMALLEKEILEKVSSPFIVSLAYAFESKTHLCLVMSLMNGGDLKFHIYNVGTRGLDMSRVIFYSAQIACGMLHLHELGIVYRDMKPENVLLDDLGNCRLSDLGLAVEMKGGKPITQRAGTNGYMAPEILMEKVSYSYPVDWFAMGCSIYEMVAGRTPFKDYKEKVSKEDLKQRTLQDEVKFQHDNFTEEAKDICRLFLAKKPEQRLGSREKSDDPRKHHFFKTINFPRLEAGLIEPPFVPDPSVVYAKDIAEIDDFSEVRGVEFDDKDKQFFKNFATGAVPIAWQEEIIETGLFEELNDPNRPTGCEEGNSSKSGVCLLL
Description: Selectivity interaction (KinomeScan (DiscoverX)) EUB0001079a GRK7. To be noted: at 1 µM.

Bounds are passed on as bounds.

Chain of Cyclin-dependent kinase 13 (Q14004 whole entry, looked up): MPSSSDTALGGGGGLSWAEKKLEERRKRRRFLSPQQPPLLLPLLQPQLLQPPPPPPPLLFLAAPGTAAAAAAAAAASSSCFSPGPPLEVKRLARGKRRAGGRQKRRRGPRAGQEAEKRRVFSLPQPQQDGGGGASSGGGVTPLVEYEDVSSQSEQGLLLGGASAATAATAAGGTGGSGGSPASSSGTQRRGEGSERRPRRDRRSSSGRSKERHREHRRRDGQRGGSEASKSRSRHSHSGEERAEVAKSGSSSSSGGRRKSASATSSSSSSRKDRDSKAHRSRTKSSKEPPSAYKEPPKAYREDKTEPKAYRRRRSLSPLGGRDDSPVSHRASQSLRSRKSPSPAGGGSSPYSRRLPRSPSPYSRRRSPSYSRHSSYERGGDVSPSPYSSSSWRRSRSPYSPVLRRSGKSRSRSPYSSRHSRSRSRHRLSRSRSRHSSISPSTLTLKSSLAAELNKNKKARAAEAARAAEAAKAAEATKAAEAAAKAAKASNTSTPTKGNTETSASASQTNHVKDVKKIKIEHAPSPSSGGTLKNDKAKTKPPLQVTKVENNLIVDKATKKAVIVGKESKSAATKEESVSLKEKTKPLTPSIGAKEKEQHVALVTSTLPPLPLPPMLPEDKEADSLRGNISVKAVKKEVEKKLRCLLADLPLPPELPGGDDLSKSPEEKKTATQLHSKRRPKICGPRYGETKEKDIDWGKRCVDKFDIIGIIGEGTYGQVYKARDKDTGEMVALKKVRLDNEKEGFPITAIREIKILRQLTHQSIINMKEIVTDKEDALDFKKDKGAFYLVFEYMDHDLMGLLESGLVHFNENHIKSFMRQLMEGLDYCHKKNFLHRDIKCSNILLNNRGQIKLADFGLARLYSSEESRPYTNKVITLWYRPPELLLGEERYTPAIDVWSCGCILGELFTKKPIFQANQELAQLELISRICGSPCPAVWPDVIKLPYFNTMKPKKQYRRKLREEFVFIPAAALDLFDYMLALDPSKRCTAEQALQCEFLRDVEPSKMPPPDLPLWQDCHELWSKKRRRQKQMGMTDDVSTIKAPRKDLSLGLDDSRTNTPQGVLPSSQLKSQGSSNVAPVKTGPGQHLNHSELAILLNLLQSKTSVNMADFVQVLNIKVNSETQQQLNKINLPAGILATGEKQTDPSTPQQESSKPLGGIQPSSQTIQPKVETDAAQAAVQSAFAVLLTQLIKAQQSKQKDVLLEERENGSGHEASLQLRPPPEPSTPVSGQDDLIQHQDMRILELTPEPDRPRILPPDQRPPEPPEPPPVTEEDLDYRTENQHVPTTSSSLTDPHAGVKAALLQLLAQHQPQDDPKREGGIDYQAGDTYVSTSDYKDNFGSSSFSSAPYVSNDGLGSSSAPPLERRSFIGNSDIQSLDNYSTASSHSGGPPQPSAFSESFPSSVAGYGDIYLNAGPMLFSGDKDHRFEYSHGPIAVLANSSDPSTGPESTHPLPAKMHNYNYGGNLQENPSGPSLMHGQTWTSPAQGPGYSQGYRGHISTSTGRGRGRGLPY
Chain of Serine/threonine-protein kinase 16 (O75716 whole entry): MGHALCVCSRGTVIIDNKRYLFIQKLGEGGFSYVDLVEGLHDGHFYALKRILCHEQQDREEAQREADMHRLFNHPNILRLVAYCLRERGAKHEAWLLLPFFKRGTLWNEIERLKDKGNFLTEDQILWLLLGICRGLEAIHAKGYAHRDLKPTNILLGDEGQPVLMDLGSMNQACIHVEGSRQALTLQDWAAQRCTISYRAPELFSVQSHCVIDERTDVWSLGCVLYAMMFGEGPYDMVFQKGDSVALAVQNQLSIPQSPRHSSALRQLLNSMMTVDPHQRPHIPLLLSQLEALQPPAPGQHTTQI
Chain of Protein kinase C delta type (Homo sapiens) (Q05655 whole entry, looked up): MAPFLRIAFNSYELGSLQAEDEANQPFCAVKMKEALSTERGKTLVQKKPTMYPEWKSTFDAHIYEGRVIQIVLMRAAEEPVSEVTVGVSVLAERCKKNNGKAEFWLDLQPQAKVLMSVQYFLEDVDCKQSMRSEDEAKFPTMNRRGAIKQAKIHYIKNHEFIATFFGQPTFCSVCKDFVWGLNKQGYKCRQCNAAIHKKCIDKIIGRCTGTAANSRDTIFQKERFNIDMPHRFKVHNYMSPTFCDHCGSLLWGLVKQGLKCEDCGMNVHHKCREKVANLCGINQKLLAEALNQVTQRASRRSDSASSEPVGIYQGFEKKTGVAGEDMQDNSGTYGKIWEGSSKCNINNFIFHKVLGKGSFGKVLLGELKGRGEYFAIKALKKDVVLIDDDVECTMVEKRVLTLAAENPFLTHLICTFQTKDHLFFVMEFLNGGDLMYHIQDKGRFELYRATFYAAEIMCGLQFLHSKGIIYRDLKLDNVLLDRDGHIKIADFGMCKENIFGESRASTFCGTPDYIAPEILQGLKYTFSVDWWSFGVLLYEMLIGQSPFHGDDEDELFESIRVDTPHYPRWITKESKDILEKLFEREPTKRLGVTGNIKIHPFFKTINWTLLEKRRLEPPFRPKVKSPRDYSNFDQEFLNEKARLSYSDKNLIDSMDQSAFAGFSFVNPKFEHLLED
Chain of Proto-oncogene tyrosine-protein kinase ROS (Homo sapiens) (P08922 whole entry): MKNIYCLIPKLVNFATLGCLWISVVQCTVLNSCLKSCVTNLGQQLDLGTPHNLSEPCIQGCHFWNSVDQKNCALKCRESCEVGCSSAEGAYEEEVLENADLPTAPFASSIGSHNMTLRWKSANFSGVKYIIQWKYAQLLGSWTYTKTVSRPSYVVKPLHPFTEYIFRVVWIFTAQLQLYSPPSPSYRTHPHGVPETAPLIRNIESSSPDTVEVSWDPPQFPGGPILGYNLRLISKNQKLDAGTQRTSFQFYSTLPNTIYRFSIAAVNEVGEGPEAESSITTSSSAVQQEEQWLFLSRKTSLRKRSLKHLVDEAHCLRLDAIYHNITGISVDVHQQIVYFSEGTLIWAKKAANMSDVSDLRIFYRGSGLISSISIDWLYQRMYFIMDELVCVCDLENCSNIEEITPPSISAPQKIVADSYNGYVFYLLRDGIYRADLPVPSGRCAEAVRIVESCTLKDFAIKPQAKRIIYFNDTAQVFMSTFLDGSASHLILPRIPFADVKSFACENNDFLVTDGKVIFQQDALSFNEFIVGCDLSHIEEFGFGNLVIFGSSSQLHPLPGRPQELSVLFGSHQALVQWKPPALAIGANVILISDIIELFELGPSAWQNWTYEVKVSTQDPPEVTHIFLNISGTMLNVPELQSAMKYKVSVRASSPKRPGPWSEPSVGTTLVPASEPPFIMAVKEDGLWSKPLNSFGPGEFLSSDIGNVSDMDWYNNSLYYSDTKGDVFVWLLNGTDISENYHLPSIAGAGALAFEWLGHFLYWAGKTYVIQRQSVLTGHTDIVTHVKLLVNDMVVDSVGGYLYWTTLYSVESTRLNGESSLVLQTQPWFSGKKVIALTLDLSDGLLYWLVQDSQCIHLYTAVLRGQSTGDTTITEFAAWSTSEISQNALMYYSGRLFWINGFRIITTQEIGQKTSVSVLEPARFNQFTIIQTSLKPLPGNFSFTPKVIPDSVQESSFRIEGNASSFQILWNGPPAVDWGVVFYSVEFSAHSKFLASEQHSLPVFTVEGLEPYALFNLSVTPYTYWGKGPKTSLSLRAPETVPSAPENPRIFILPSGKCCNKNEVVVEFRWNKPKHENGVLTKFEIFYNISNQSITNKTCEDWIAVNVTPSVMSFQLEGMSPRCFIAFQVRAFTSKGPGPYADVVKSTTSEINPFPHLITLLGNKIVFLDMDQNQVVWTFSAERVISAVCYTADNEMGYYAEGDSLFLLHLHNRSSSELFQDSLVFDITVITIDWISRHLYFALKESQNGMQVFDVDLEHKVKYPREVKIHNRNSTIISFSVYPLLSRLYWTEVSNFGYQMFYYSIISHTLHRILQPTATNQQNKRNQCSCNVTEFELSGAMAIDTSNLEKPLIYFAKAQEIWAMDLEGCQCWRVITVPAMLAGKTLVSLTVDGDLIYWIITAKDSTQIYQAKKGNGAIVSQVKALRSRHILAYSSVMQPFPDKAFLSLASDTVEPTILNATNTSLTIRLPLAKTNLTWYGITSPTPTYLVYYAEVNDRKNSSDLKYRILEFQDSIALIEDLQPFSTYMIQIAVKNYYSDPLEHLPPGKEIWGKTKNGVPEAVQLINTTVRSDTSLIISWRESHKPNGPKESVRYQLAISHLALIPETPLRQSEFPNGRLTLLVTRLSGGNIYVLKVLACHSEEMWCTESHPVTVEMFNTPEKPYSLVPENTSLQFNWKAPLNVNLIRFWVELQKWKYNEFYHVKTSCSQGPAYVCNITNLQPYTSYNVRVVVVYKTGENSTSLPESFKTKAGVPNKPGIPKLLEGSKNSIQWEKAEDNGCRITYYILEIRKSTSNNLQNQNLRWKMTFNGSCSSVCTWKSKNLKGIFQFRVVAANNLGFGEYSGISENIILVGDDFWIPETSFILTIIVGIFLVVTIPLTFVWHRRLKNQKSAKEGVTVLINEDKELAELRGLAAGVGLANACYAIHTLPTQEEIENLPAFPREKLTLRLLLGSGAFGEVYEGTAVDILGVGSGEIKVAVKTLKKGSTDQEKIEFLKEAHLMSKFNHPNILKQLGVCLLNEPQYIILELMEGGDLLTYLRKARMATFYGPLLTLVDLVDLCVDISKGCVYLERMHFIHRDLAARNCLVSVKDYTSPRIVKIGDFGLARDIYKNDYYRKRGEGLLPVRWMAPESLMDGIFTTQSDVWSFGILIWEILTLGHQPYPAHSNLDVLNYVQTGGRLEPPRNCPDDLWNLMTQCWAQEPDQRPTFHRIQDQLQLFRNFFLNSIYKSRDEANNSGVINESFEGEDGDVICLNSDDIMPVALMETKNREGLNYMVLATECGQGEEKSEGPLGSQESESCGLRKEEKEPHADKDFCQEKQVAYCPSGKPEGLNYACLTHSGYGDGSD

As for `Cn1cc(-n2cnc3c(NCc4nc5cc(Cl)c(Cl)cc5[nH]4)nc(N4CCOCC4)nc32)cn1`, in assay [1], the % of control was found to be 0.847%.

In the case of `N#Cc1cccc(-c2c[nH]c3ncnc(N4CCOCC4)c23)c1`, the % of inhibition in assay [2] amounted to 63%.

In assay [3], `Cc1cc([C@@H](C)Nc2ccccc2C(=O)O)c2nc(N3CCOCC3)cc(=O)n2c1` [AZD-6482] had a % of control of 85%.

Consider `CNCCN1CCC(c2cc(CN(C)C(=O)c3cccc(Oc4ccccc4)c3)ccn2)CC1`, for which the % activity in assay [4] was > 90%.

Turning to `C=CC(=O)Nc1cc(-n2c(=O)ccc3cnc4ccc(-c5ccc(NS(C)(=O)=O)cc5)cc4c32)ccc1C`, the % of control in assay [5] (at 1 µM) and in assay [5] (at 10 µM) was 100% each time.

In the case of `O[C@H]1CC[C@H](Nc2ncc3nc(Nc4c(F)cc(F)cc4F)n([C@H]4CCOC4)c3n2)CC1`, the % of control stood at 100% in assay [6] and 93% in assay [7].

Consider `Nc1cnc(N2CCc3cc(S(=O)(=O)Nc4c(F)cc(Cl)cc4F)cc(N4CCCC4=O)c32)nc1` [TP-020n], for which the % of control in assay [8] amounted to 99%.

Values taken from ChEMBL document CHEMBL5465560, “Selectivity Literature for EUbOPEN Chemogenomic Library” (2024).
